Laboratory results reported in patent publication US20080269202A1, “Novel 2,3-benzodiazepine derivatives and their use as antipsychotic agents” (Teva Pharmaceutical Industries Ltd., priority 2007, published 2008).
Read-outs that look alike come from different tables or passages of the source.

Legend:
Melatonin (MT2) receptor = target: T1, Melatonin (MT2) receptor (Homo sapiens, UniProt P49286); experiment: in vitro inhibition, melatonin (MT2) receptor; type: binding; conditions: conc: 10 μM
T1 sequence (P49286 1-362): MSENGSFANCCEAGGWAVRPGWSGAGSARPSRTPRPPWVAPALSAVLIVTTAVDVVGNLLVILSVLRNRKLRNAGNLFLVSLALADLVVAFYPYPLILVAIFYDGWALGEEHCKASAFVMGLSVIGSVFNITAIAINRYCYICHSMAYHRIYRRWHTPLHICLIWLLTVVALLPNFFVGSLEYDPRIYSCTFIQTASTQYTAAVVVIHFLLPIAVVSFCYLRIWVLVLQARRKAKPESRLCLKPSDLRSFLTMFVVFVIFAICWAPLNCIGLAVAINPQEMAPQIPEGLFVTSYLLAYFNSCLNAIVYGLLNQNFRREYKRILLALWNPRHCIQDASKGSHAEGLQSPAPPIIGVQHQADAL

adrenergic receptors [1] = target: T2, adrenergic receptors; experiment: in vitro binding profile to adrenergic receptors (Table 3); conditions: rat cerebral cortical membranes, ligand [3H]prazosin; read-out: α1 binding
T2 construct: other: rat cerebral cortical membranes, ligand [3H]prazosin
Text: (§1) The new 2,3-benzodiazepine atypical antipsychotic agents of formula (I) of the present invention influence dopaminergic neurotransmission by a unique indirect fashion, differently from both the first and second generation antipsychotics. The in vitro binding profile of these compounds (Table 3) differs from that of the first generation antipsychotics which bind to dopaminergic receptors and second generation antipsychotics, representatives of which show affinity for dopaminergic, serotonergic, or adrenergic receptors.

adrenergic receptors [2] = target: T3, adrenergic receptors; experiment: as above; conditions: rat cerebral cortical membranes, ligand [3H]yohimbine; read-out: α2 binding
T3 construct: other: rat cerebral cortical membranes, ligand [3H]yohimbine
Text: as §1

[3] = target: central dopaminergic receptors (Rattus norvegicus, UniProt P61169); experiment: in vitro binding profile to central dopaminergic receptors (Table 3); conditions: rat striatal membranes, ligand [3H]sulpirid; read-out: D2 binding
Text: as §1

[4] = target: central dopaminergic receptors (Homo sapiens, UniProt P35462); experiment: as above; conditions: human recombinant CHO cells, ligand [3H]spiperone (footnote prints D2); read-out: D3 binding
Text: as §1

[5] = target: T4, central dopaminergic receptors (Homo sapiens, UniProt P21917); experiment: as above; conditions: human recombinant CHO-K1 cells, ligand [3H]spiperone; read-out: D4 binding
T4 sequence (P21917 1-419): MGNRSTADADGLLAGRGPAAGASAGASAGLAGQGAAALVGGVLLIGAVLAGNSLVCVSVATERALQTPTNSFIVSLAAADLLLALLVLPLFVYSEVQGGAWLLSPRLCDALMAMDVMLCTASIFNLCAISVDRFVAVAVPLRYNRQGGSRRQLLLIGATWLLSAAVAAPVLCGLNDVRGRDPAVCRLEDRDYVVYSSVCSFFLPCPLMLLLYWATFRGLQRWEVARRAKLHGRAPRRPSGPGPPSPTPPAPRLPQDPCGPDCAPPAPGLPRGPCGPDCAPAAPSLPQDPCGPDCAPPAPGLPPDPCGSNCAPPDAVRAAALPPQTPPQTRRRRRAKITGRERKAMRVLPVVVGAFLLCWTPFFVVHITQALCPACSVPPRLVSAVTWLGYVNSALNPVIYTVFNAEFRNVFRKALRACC
Text: as §1

[6] = target: central dopaminergic receptors (Homo sapiens, UniProt P21728); experiment: as above; conditions: human recombinant CHO cells, ligand [3H]SCH-23390; read-out: D1 binding
Text: as §1

PCP-induced stereotypy = PCP-induced stereotypy in mice; type: in vivo, CD1 mice; conditions: Mus musculus, read-out: PCP-stereotypy ED50 mg/kg po.
Text: Alterations in the mesocortical dopaminergic tract are thought to be responsible for the negative symptoms of schizophrenia (flattening of affect, poverty of speech, lack of volition and drive, loss of feeling, social withdrawal and decreased spontaneous movement). The best animal model of these symptoms is the behavioral changes induced by PCP (phencyclidine). The PCP-induced stereotypy and hypermotility was investigated in mice according to Ljungberg and Ungerstedt (Ljungberg, T., Ungerstedt, U. Pharmacol. Biochem. Behav., 1985, 23, 479,) and Jawitt (Jawitt, D. C. Amer. J. Psychiatry, 1991, 145, 1301). The stereotypy experiments were carried out in male CD1 mice weighing 20-25 g. The animals were starved for 16 hours before treatment without limitation of water availability. In the stereotypy studies, 30 min before treatment, mice were individually placed into small, transparent acrylic cages for habituation. Test substances were administered orally in a volume of 0.1 ml/10 g. 30 min later mice were treated with PCP with an intraperitoneal dose of 7 mg/kg. Stereotyped behavior was observed every 5th min for 60 min and scored from 0 to 4. The scores were summed individually, averaged and compared to the control group.
In both studies the ED50 values were calculated by the Litchfield-Wilcoxon's method (J. Pharmacol. Exp. Ther. 1949, 96, 49).

Adenosine transporter = experiment: in vitro inhibition, adenosine transporter; type: binding; conditions: conc: 10 μM
catalepsy = catalepsy test in rats; type: in vivo, CDBR rats; conditions: sum of 8 readings over 4 hours
Text: In order to investigate the potential side effect profile, the catalepsy test in rats has been carried out according to Costall and Naylor (Costall, B., Naylor, R. J. Arzneimittelforschung/Drug Res., 1973, 23, 674).
Catalepsy is defined as a failure to correct an externally imposed, unusual posture over a prolonged time. Neuroleptics which have direct inhibitory action on the nigrostriatal dopamine system induce catalepsy. It may be reflected by the Parkinson-like extrapyramidal symptoms seen clinically with administration of classical antipsychotics. The experiments were carried out in male CDBR rats weighing 300-400 g. The volume of administration was 0.25 ml/100 g body weight. The animals were starved for 16 hours before treatment, water was delivered ad libitum. After intraperitoneal administration of the test substances, the forepaws of the rats were placed on a horizontal stainless steel bar elevated to 10 cm high, while the hind paws remained on a metal plate. The semi-automatic 5-channel catalepsy meter measured the time spent in this unusual posture by an electronic stop-clock. The catalepsy time was scored from 0 to 5 according to the time spent in the unusual posture. […] Means of groups were calculated.

[7] = system: PCP-induced disruption of PPI; experiment: PCP-induced disruption of pre-pulse inhibition (PPI)
Text: Male C57B1/6J mice from Jackson Laboratories (Bar Harbor, Me.) were used in this study. Mice were received at 6-weeks of age. Upon receipt, mice were assigned unique identification numbers (tail marked) and were group housed in OPTImice cages. All animals remained housed in groups of four during the remainder of the study. […] During the period of acclimation, mice were examined on a regular basis, handled, and weighed to assure adequate health and suitability. Mice were maintained on a 12/12 light/dark cycle with the light on at 6:00 a.m. The room temperature was maintained between 20 and 23° C. with a relative humidity maintained between 30% and 70%. Food and water were provided ad libitum for the duration of the study. In each test, animals were randomly assigned across treatment groups.
All compounds were injected i.p. at a dose volume of 10 ml/kg. […] Phenylcyclohexylpiperidine (PCP) (8 mg/kg) was dissolved in sterile water.
The acoustic startle measured an unconditioned reflex response to external auditory stimulation. […] Mice were placed in the PPI chambers (Med Associates) for a 5 min session of white noise (70 dB) habituation.
After the acclimation period the test session was automatically started. The session started with a habituation block of 6 presentations of the startle stimulus alone, followed by 10 PPI blocks of 6 different types of trials. Trial types are: null (no stimuli), startle (120 dB), startle plus prepulse (4, 8 and 12 dB over background noise i.e. 74, 78 or 82 dB) and prepulse alone (82 dB). Trial types were presented at random within each block.
Each trial started with a 50 ms null period during which baseline movements were recorded. There was a subsequent 20 ms period during which prepulse stimuli were presented and responses to the prepulse measured. After further 100 ms the startle stimuli were presented for 40 ms and responses recorded for 100 ms from startle onset. Responses were sampled every ms. The inter-trial interval was variable with an average of 15 s (range from 10 to 20 s). In startle alone trials the basic auditory startle was measured and in prepulse plus startle trials the amount of inhibition of the normal startle was determined and expressed as a percentage of the basic startle response (from startle alone trials), excluding the startle response of the first habituation block.
Data were analyzed by analysis of variance (ANOVA) followed by post-hoc comparisons with Fisher Tests when appropriate. An effect was considered significant if p<0.05. Data are represented as the mean and standard error to the mean.

[8] = mice, po. 30 min before PCP 7 mg/kg ip

Chain of central dopaminergic receptors (Rattus norvegicus, UniProt P61169) (P61169 whole entry): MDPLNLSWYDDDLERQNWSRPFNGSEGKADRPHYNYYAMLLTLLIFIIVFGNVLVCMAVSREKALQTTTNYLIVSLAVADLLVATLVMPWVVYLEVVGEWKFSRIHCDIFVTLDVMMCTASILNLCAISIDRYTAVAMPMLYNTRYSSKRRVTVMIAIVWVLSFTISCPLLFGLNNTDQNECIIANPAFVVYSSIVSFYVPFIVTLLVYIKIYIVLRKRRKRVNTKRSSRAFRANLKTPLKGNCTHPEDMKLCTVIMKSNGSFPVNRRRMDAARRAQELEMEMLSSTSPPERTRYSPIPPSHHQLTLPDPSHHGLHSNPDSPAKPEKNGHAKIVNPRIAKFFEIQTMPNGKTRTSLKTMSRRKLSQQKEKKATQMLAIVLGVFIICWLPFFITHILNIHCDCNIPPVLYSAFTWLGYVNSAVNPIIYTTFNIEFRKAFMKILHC
Chain of central dopaminergic receptors (Homo sapiens, UniProt P21728) (P21728 whole entry): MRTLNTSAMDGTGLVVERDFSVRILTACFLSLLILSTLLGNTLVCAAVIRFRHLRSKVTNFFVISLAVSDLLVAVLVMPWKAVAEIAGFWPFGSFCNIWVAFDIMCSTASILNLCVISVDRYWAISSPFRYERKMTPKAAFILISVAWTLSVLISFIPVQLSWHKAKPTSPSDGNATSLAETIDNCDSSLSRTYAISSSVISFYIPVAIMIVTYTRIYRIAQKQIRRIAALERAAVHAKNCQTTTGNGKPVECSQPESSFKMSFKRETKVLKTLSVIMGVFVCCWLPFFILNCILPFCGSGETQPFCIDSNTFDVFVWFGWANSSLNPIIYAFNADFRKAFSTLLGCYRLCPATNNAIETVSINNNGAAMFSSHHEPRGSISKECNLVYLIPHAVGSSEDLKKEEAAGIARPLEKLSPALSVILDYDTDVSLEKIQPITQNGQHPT
Chain of central dopaminergic receptors (Homo sapiens, UniProt P35462) (P35462 whole entry): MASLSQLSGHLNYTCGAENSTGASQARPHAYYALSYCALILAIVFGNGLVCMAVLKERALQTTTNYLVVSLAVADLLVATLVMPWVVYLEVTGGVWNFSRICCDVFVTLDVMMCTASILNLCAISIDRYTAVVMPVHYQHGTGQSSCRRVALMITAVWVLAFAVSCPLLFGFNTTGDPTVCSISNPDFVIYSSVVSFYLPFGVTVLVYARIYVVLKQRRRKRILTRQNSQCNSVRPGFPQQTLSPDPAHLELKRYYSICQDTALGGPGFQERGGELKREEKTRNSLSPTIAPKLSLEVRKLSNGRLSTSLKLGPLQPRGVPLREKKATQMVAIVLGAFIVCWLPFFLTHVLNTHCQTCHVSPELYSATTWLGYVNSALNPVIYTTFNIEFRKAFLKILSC

SMILES | inhibition at 10 µM (Melatonin (MT2) receptor) | Ki (adrenergic receptors [1]) | Ki (adrenergic receptors [2]) | Ki [3] | Ki [4] | Ki [5] | Ki [6] | ED50 (PCP-induced stereotypy; [8]) | Inhibition in %, Adenosine transporter (Adenosine transporter) | Catalapsy scores (catalepsy; dose 40 mg/kg ip) | melting point | Catalapsy scores (catalepsy; dose 10 mg/kg ip) | ED50 (PCP-induced stereotypy) | sedation and lethargy in the mice ([7]; 5 mg/kg i.p. (high dose)) | reversal of PCP-induced disruption of PPI ([7]; 2.5 and 5 mg/kg i.p., PCP 8 mg/kg, C57B1/6J mice)
COc1cc2c(cc1OC)C(c1ccc(N)c(C)c1)=NN(c1ncon1)[C@H](C)C2 [Example 104] | 80% | > 10 µM | > 10 µM | > 10 µM | > 10 µM | > 10 µM | > 10 µM | 1.12 mg/kg | 96% | 40:0 |  |  |  |  | 
COc1cc2c(cc1OC)C(c1ccc(N)c(C)c1)=NN(c1nncs1)[C@H](C)C2 [Example 110] | 95% | > 10 µM | > 10 µM | > 10 µM | > 10 µM | > 10 µM | > 10 µM | 2.38 mg/kg | 94% |  | 143 °C | 10:0.375 |  |  | 
CNC(=O)N1N=C(c2ccc(N)cc2)c2cc(OC)c(OC)cc2C[C@H]1C [Example 121] | 80% | > 10 µM | > 10 µM | > 10 µM | > 10 µM | > 10 µM | > 10 µM |  | 87% |  | 140 to 144 °C | 10:0 | 1.56 mg/kg | caused sedation and lethargy | significantly reversed
CNC(=O)N1N=C(c2ccc(N)c(C)c2)c2cc(OC)c(OC)cc2C[C@H]1C [Example 123] | 64% | > 10 µM | > 10 µM | > 10 µM | > 10 µM | > 10 µM | > 10 µM |  | 90% | 40:0 | 147 °C |  | 1.07 mg/kg |  | 
